# Reference: PubChem BioAssay AID2305 (GlaxoSmithKline (GSK), 2010)
# Tested on: P. falciparum 3D7 growth, pLDH absorbance
# Test: blood-stage malaria parasite growth potency – strain 3D7, dose response (AID 2305)
row,SMILES,IC50
1,OC(c1cc(C(F)(F)F)nc2c(C(F)(F)F)cccc12)C1CCCCN1 (centres undefined),70 nM
2,COCCN1CCC(NCC(C)(C)c2nc(-c3ccc(Cl)c(O)c3)c(-c3ccncc3)[nH]2)CC1,720 nM
3,CCOC(=O)c1ccc(NC(=O)c2ccccc2C(=O)O)cc1,920 nM
4,Cc1[nH]c(C)c(-c2ccc(CCc3ccc(F)cc3F)cc2)c(=O)c1Br,10 nM
5,CCN(CC)CCN(Cc1ccc(-c2ccc(C(F)(F)F)cc2)cc1)C(=O)Cn1c(CCc2ccc(F)c(C#N)c2)nc(=O)c2ccccc21,770 nM
6,NC(=O)c1cccc(C(=O)Nc2ccc(-c3cccc(-c4nc5ccc(C(F)(F)F)cc5[nH]4)c3)cc2)c1,350 nM
7,CS(=O)(=O)Nc1ccc2[nH]cc(C3CCN(CC4CCC(NC(=O)/C=C/c5ccc(Cl)c(Cl)c5)CC4)CC3)c2c1 (centres undefined),850 nM
8,COc1ccc(-c2cnc3[nH]cc(-c4ccncc4)c3c2)cc1OC,130 nM
9,CN1CCc2cc(O)c(NS(=O)(=O)c3ccc(-c4ccc(Cl)cc4)cc3)cc2CC1,770 nM
10,COc1ccc(CNc2ncc(-c3ccsc3)c(-c3nccs3)n2)cc1OC,90 nM
11,COc1ccc(C[C@@H](C)NC[C@H](O)c2cccc(Cl)c2)cc1F,870 nM
12,CC(Sc1n[nH]c(-c2cccs2)n1)C(=O)c1c[nH]c2ccccc12 (centres undefined),1800 nM
13,CS(=O)(=O)CCNCc1ccc(-c2cc3c(Nc4ccc(OCc5cccc(F)c5)c(Cl)c4)ncnc3s2)[nH]1,840 nM
14,O=c1cc(NCCCNCc2ccc(C(F)(F)F)s2)[nH]c2ccccc12,200 nM
15,CCc1c(CCNCCCCCCNCCc2ccccc2)ccc(OC)c1OC,800 nM
16,CC(C)(Oc1ccc(Cl)cc1)C(=O)NCCC1CCN(CCCCCNC(=O)/C=C/c2ccc(Cl)c(Cl)c2)CC1,940 nM
17,CN(C)CCCn1c(C(=O)OC(c2ccccc2)c2ccccc2)cc2cc(OCc3ccccc3)ccc21,200 nM
18,O=C(Cc1cnc[nH]1)Nc1cccc(-c2cccc(-c3nc4ccccc4[nH]3)c2)c1,1020 nM
19,COc1ccc2nccc([C@@H](O)CN3CCC(NC(=O)C(c4cc5ccccc5s4)N4CCN(c5ccccc5OC)CC4)CC3)c2c1 (some centres undefined),160 nM
20,CCN(CC)CCN(Cc1ccc(-c2ccc(C(F)(F)F)cc2)cc1)C(=O)c1ccc(-c2ccc(C#N)cc2)cc1,1110 nM
21,CCN(CC)CCCn1c(N)c(-c2nc3ccccc3[nH]2)c2nc(C#N)c(C#N)nc21,270 nM
22,COc1cc(-n2cnc3cc(-c4ccc([N+](=O)[O-])cc4)sc3c2=O)ccc1OCCN1CCCC1,780 nM
23,COc1cc2ncnc(Nc3ccc(Br)c(Cl)c3)c2cc1OC,720 nM

row,SMILES,IC50
1,CCc1ccc2nc(-c3ccc(F)cc3)nc(SCC(=O)Nc3sc(C)c(C)c3C#N)c2c1,640 nM
2,COc1ccc2nccc([C@@H](O)CN3CCC(NC[C@H](Cc4ccccc4)NC(=O)OC(C)(C)C)CC3)c2c1,230 nM
3,Cc1cccc2[nH]c(-c3cccc(-c4cccc(C(=O)NCCc5cn(C)cn5)c4)c3)nc12,590 nM
4,CC(=O)Nc1ccc(S(=O)(=O)N2CCN(c3nc(NC4CCCC4)c4ccccc4n3)CC2)cc1,1030 nM
5,FC(F)(F)c1ccc2c(NCCc3ccccc3)ccnc2c1,1270 nM
6,COC(=O)c1cc(C(O)CNC(C)CCc2cccc(F)c2)ccc1O (centres undefined),1180 nM
7,CN(C)CCCn1cc(C(=O)OC2C[C@H]3CC[C@@H](C2)N3C)c2cc(-c3ccccc3)ccc21 (some centres undefined),840 nM
8,Cc1cc(NCC(c2ccccc2)c2ccccc2)nc(NCc2ccc(C(F)(F)F)cc2)n1,250 nM
9,Nc1nc(N)c2c(ccc3c2cnn3S(=O)(=O)N2CCCC2)n1,20 nM
10,O=C(/C=C/c1ccc(Cl)c(Cl)c1)NCc1ccc(CN2CCC(c3c[nH]c4ccccc34)CC2)cc1,710 nM
11,O=C(Nc1ccccc1F)NC1CCN(c2ccnc(Nc3ccc(F)cc3)n2)C1 (centres undefined),850 nM
12,OC1(C(F)(F)F)CC(c2ccccc2)=NN1c1nncc(-c2ccccc2)n1 (centres undefined),730 nM
13,CC1CN=C(c2cccc(NC(=O)Nc3cccc(C4=NCC(C)N4)c3)c2)N1 (centres undefined),360 nM
14,CCN(CC)CCN(Cc1ccc(-c2ccc(Cl)cc2)cc1)C(=O)Cn1cc(CN(C)C)c(=O)nc1SCc1ccc(F)cc1,750 nM
15,CCOc1cc(Cc2cnc(N)nc2N)cc(OCC)c1OCCCCC(=O)OC,40 nM
16,COc1ccc(OC)c(NC(=O)c2c(-c3c(F)cccc3Cl)noc2C)c1,700 nM
17,O=C(Cc1cnc[nH]1)Nc1cccc(-c2cccc(-c3nc4ccc(C(F)(F)F)cc4[nH]3)c2)c1,230 nM
18,N#CCSc1nnc(-c2ccccc2)c2ccccc12,720 nM
19,COc1ccc(C2CCN(CCN3CCC(NC(=O)c4ccc(-c5cccc(C(F)(F)F)c5C(F)(F)F)cc4)CC3)CC2)c(OC)c1,420 nM
20,COc1ccc2c(c1)S(=O)(=O)N=C(N1CCCC1c1ccc(Cl)c(Cl)c1)N2C (centres undefined),1280 nM
21,Cc1cccc2[nH]c(-c3ccc(-c4ccc(CNCCCN5CCCC5=O)cc4)cc3)nc12,630 nM
22,CCc1cn2c3c(cc(C(=O)N[C@@H](Cc4ccccc4)[C@H](O)CNCc4ccccc4)cc13)N(C)S(=O)(=O)CC2,660 nM
23,O=c1cc(NCCCNCc2cccc(SC(F)(F)F)c2)[nH]c2ccccc12,720 nM

row,SMILES,IC50
1,COc1ccc2c(NN=Cc3cccc(C)n3)cc(-c3ccccc3)nc2c1,750 nM
2,O=C1c2ccccc2CCC1CCN1CC=C(c2c[nH]c3ccccc23)CC1 (centres undefined),700 nM
3,COc1ccc(Nc2nccc(N3CCC(NC(=O)Nc4ccc5c(c4)OCO5)C3)n2)cc1 (centres undefined),600 nM
4,COc1cccc(CNCC(C)(C)c2nc(-c3ccc(Cl)c(O)c3)c(-c3ccncc3)[nH]2)c1,690 nM
5,CCOC(=O)c1c(C)n(C2CCCCC2)c2cc(Br)c(O)cc12,820 nM
6,Cc1ccc(NC(=O)Nc2ccc(Br)cc2)cc1OCCN(C)C,980 nM
7,CCN(CC)Cc1ccc2c(=O)cc(CCc3cccc(F)c3F)n(CC(=O)N(Cc3ccc(-c4ccc(C(F)(F)F)cc4)cc3)C(C)C)c2c1,780 nM
8,CCCN(CC1CC1)c1nc(C)nc2c(-c3ccccc3)cc(C)cc12,1020 nM
9,CC(C)[C@H](NC(=O)c1c(F)cccc1F)C(=O)Nc1ccc(Cc2nc3ccccc3s2)cc1,500 nM
10,CC(=O)Nc1cc(C(=O)Nc2cccc(-c3csc(-c4nc5ccccc5[nH]4)c3)c2)ccc1C,460 nM
11,Cc1ccc(NC(=O)c2ccc(N3CCN(c4ccncc4)CC3)cn2)cc1F,1570 nM
12,CCOCCCNc1sc(S(=O)(=O)c2ccccc2)nc1S(=O)(=O)c1ccc(C)cc1,810 nM
13,Cn1cccc1C(=O)Nc1cccc(-c2nn3ccccc3c2-c2ccnc(Nc3ccc4c(c3)OCCO4)n2)c1,1350 nM
14,CN1CC[C@@H](Oc2cc(NC(=O)Nc3ccc(Cl)c(C(F)(F)F)c3)ccc2Cl)C1,990 nM
15,CC(C)(C)OC(=O)NCc1ccc(Nc2nnc(-c3cccc(C(=O)NCCC(c4ccccc4)c4ccccc4)c3)o2)cc1,580 nM
16,COc1cc(NC(=O)c2c(-c3c(Cl)cccc3Cl)noc2C)c(OC)cc1Cl,920 nM
17,COc1cccc(-c2cccc(NC(=O)C3CCN(Cc4ccc(O)cc4)CC3)c2)c1,1030 nM
18,Cc1cccc2[nH]c(-c3cccc(-c4ccc(NC(=O)c5cnc[nH]5)cc4)c3)nc12,720 nM
19,COc1ccc(CNc2cc(C)nc3sc4c(c23)CCC2(C4)OCCO2)cc1,950 nM
20,CC(C)c1cc(Oc2c(I)cc(CCN=C(N)N)cc2I)ccc1O,790 nM
21,Cc1cc(N)nc2ccc(-c3ccc(CCN)cc3)cc12,620 nM
22,CC(C)CCN1CCCN(Cc2ccc(C(=O)Nc3ccc(Cl)cc3)cc2)CC1,800 nM
23,NCCc1cccc(-c2cnc3[nH]cc(-c4ccc(C(=O)O)cc4)c3c2)c1,400 nM
